What all share (assay): BRET assay using TRUPATH biosensors, Gi activation of ADGRF1
Common to all, as to format: cell-based
(Bioluminescence resonance energy transfer reports proximity on the nanometre scale.)

The target in experiment [1] is T1, ADGRF1 (Homo sapiens, UniProt Q5T601, K791A).
T1 construct: Flag (N); expressed in transfected cells; host or cells: HEK293F
T1 sequence (Q5T601 20-910 K791A): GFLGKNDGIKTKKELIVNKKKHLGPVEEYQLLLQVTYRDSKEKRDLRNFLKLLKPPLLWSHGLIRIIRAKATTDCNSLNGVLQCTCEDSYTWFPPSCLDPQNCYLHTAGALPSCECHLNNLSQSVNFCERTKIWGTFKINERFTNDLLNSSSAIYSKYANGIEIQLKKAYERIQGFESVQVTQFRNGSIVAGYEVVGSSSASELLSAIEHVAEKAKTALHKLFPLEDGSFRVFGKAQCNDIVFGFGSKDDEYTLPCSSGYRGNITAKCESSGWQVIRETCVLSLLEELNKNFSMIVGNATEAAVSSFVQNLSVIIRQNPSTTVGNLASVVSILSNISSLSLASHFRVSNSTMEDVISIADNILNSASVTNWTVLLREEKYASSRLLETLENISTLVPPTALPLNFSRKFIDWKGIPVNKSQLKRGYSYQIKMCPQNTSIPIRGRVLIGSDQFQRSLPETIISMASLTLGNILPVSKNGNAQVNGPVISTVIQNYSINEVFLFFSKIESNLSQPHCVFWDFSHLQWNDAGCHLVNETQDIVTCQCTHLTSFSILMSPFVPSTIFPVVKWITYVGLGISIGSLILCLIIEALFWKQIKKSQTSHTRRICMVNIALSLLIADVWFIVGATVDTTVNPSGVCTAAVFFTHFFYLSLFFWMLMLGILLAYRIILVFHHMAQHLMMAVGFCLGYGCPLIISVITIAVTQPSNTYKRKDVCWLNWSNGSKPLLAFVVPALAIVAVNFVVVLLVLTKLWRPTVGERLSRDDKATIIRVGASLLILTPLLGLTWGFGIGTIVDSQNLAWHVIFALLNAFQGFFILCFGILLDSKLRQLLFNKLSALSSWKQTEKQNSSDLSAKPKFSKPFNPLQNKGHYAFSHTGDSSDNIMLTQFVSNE
The settings on record: ADGRF1 K791^6.40bA. The gist of the method:
(§1)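 HEK293F cells transiently co-transfected with wild-type or mutant receptor, Gα-RLuc8 (GαsS for Gs, Gαi1 for Gi), Gβ3 and Gγ9-GFP2 at 2:1:1:1. After 30 min at 37 °C and coelenterazine 400a, cells stimulated with synthetic stalk peptide. BRET = GFP2/RLuc8 emission, last of five readings.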

In experiment [2] the target is T2, ADGRF1 (Homo sapiens, UniProt Q5T601, Y668A).
T2 construct: Flag (N); expressed in transfected cells; host or cells: HEK293F
T2 sequence (Q5T601 20-910 Y668A): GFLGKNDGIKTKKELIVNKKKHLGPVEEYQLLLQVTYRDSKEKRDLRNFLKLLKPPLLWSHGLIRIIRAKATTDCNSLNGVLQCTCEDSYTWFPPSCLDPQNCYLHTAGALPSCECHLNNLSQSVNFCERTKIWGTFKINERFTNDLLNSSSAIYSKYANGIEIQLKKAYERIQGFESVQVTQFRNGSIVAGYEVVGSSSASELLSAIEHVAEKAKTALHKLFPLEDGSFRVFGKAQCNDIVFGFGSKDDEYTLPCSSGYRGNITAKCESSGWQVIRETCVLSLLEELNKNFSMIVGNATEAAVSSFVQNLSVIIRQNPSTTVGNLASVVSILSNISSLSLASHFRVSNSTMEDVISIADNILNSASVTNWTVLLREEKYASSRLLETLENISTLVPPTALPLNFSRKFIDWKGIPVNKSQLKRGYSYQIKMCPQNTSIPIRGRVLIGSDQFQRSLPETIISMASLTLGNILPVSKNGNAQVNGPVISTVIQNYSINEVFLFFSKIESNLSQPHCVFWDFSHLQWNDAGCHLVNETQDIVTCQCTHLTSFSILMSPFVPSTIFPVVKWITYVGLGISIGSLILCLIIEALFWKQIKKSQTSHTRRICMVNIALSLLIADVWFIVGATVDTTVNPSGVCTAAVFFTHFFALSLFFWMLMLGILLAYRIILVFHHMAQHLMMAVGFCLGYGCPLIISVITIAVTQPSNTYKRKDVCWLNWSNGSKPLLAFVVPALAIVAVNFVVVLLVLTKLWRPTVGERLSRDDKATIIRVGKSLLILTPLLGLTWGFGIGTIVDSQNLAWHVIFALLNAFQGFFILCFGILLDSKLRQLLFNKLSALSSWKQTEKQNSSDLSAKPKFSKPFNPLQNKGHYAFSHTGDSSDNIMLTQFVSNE
The settings on record: ADGRF1 Y668^3.40bA. Put shortly: as §1

The target in experiment [3] is T3, ADGRF1 (Homo sapiens, UniProt Q5T601, L769A).
T3 construct: Flag (N); expressed in transfected cells; host or cells: HEK293F
T3 sequence (Q5T601 20-910 L769A): T1 sequence (Q5T601 20-910 K791A) with L750A, A772K
The following applies: ADGRF1 L769^5.61bA. The gist of the method: as §1

The target in experiment [4] is T4, ADGRF1 (Homo sapiens, UniProt Q5T601, F672A).
T4 construct: Flag (N); expressed in transfected cells; host or cells: HEK293F
T4 sequence (Q5T601 20-910 F672A): as the sequence (Q5T601 20-910 Y668A) above, with A649Y, F653A counted along it
The following applies: ADGRF1 F672^3.44bA. Put shortly: as §1

In experiment [5] the target is T5, ADGRF1 (Homo sapiens, UniProt Q5T601, Y684A).
T5 construct: Flag (N); expressed in transfected cells; host or cells: HEK293F
T5 sequence (Q5T601 20-910 Y684A): as the sequence (Q5T601 20-910 Y668A) above, with A649Y, Y665A counted along it
The following applies: ADGRF1 Y684^3.56bA. The gist of the method:
as §1

The target of experiment [6] is T6, ADGRF1 (Homo sapiens, UniProt Q5T601, G807W).
T6 construct: Flag (N); expressed in transfected cells; host or cells: HEK293F
T6 sequence (Q5T601 20-910 G807W): as the sequence (Q5T601 20-910 Y668A) above, with A649Y, G788W counted along it
The following applies: ADGRF1 G807^6.56bW, n = 3. The gist of the method: as §1

Experiment [7] has as its target T7, ADGRF1 (Homo sapiens, UniProt Q5T601, G702Y).
T7 construct: Flag (N); expressed in transfected cells; host or cells: HEK293F
The following applies: ADGRF1 G702^4.45bY, n = 3. The gist of the method: as §1

Setting [8] is: n = 3, read-out: pEC50 (mean ± s.e.m.) (converted).

Where a chain is given by its changes, count along the chain named. pEC50: −log10 of the molar value. Ends that are not written are not given here.

T7 sequence (Q5T601 20-910 G702Y): as the sequence (Q5T601 20-910 Y668A) above, with A649Y, G683Y counted along it

As for TSFSILMSPFVP [pF1], the “Emax (mean ± s.e.m.)” value on ADGRF1 [1] (n = 3) was 102 ± 13 % of WT; at ADGRF1 [2] (n = 3), 123 ± 17 % of WT; on ADGRF1 [3] (n = 3), 102 ± 12 % of WT; on ADGRF1 [4] (n = 3), 72 ± 12 % of WT; on ADGRF1 [5] (n = 3), 115 ± 17 % of WT; on ADGRF1 [6], 101 ± 13 % of WT. Besides, the “Emax (mean ± s.e.m.)” value on ADGRF1 [7] was 94 ± 16 % of WT. Also, the EC50 at ADGRF1 [1] (setting [8]) is 102 nM; at ADGRF1 [2] (setting [8]), 355 nM; at ADGRF1 [3] (setting [8]), 302 nM; at ADGRF1 [4] (setting [8]), 437 nM; at ADGRF1 [5] (setting [8]), 813 nM. Besides, the pEC50 was 5.82 on ADGRF1 [6] and 5.93 on ADGRF1 [7].

In general, pEC50 refers to −log10 of the EC50, conventionally taken in molar units. A lower pEC50 goes with a high EC50.

The values are drawn from article PMC9046087, “Structural basis of tethered agonism of the adhesion GPCRs ADGRD1 and ADGRF1” (Nature, 2022).
